Measured values taken from patent US8338450B2, “Compounds as dipeptidyl peptidase IV (DPP IV) inhibitors” (Lupin Limited, priority 2007, dated 2012).
Counter-ions that a name gives are not always drawn. Like-named read-outs stand apart in the source and are kept apart here.

Experiments:
human recombinant DPP-IV = target: T1, human recombinant DPP-IV (Homo sapiens, UniProt P27487); assay: Inhibition of human recombinant DPP-IV (Gly-Pro-AMC hydrolysis, fluorometric); format: biochemical; conditions: for IC50: human recombinant DPP-IV, 50 μM Gly-Pro-AMC, 30 min at 30° C.; for % inhibition at 10 nM: compound 10 nM, relative to vehicle controls
T1 construct: purchased R&D Systems, USA (or produced in-house)
T1 sequence (P27487 whole entry): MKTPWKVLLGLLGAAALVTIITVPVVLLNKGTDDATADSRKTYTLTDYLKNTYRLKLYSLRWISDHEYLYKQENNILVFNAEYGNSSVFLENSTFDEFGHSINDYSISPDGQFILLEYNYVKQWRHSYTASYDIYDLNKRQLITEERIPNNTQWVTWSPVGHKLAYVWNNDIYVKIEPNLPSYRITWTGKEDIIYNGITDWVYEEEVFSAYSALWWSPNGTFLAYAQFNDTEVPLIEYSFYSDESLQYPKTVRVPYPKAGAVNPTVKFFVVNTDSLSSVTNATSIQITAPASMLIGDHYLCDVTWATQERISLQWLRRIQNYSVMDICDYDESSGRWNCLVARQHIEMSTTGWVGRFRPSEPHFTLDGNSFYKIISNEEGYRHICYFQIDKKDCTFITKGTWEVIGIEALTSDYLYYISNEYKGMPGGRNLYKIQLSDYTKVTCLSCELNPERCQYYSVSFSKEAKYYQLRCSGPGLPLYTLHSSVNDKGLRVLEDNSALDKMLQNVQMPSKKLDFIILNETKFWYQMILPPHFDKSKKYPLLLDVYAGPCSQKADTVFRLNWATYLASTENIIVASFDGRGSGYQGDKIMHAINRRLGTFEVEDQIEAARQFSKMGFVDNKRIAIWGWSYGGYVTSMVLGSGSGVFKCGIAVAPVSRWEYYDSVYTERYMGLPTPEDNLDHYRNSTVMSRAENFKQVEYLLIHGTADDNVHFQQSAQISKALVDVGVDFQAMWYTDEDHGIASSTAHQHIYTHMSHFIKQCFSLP
In short: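 Enzyme (10 ng) was preincubated 15 min at 30° C. with compound (10 and 100 nM screen; 8 concentrations 0.1-1000 nM) in Tris-HCl pH 7.4, NaCl, KCl, BSA. 50 μM Gly-Pro-AMC was added for 30 min at 30° C. and AMC fluorescence was read (ex 360/em 460 nm). Results are given as % inhibition versus vehicle or as IC50.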

plasma DPP-IV = target: T2, plasma DPP-IV (Rattus norvegicus, UniProt P14740); assay: Measurement of plasma DPP-IV activity in male Wistar rats after single oral dose; format: in vivo; conditions: 10 mg/kg, p.o.; for inhibition at 10 mg/kg: rat, po
T2 construct: from tissue; host or cells: EDTA-plasma of male Wistar rats dosed orally
T2 sequence (P14740 37-767 limits assumed): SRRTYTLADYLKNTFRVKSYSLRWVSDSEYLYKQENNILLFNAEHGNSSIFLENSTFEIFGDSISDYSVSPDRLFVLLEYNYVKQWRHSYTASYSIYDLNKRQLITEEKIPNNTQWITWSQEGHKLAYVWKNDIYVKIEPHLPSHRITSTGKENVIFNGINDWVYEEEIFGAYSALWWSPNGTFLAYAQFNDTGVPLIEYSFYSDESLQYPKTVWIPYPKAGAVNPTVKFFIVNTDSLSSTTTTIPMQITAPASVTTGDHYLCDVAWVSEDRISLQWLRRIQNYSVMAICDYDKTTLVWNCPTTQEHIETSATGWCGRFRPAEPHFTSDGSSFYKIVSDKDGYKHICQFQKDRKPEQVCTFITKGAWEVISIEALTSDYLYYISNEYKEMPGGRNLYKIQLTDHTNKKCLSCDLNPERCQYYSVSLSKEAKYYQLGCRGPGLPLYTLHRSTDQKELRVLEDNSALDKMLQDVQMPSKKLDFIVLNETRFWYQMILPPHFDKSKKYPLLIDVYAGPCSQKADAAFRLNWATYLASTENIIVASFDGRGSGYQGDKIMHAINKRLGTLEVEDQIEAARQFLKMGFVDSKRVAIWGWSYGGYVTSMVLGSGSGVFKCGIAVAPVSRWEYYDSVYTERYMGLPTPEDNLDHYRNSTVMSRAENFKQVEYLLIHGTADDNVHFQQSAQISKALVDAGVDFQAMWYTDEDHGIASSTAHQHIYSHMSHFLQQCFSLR
Description: Overnight-fasted male animals were administered either vehicle or single oral doses of compounds. Blood samples were withdrawn from retro-bulbar venous plexus under anesthesia at several time points up to 24 h post-dose. EDTA-plasma was separated and DPP-IV activity was measured using a fluorometric assay. Assays were carried out in 96-well flat-bottom black microwell plates. A typical reaction contained 25 μl plasma, 50 μl of 50 μM substrate (Gly-Pro-AMC) and 25 μl assay buffer (25 mM Tris-HCl, pH 7.4, 140 mM NaCl, 10 mM KCl and 1% BSA) in a total reaction volume of 100 μl. Plasma samples were incubated with the substrate for 30 min at 30° C., following which the fluorescence was measured in a microplate fluorescence redaer (POLARstar Galaxy), with excitation and emission wavelengths set at 360 nm and 460 nm, respectively. Percent inhibition in plasma DPP-IV activity due to compounds was calculated by comparing with plasma from vehicle-treated animals.

Row | Structure (SMILES) | melting point | IC50 (human recombinant DPP-IV) | also measured
1 | N#C[C@@H]1C[C@@H]2C[C@@H]2N1C(=O)[C@@H](N)C1CC2CCC(C1)N2C(=O)c1ccnc(F)c1 (stereo partly drawn) (as salt: salt) [Compound 28, (1S,3S,5S)-2-{(2S)-2-amino-2-[8-(2-fluoropyridine-4-carbonyl)-8-aza-bicyclo[3.2.1]-oct-3-yl]-exo-ethanoyl}-2-azabicyclo[3.1.0]-hexane-3-carbonitrile trifluoro acetic acid salt] | 112 to 115 °C | – | –
2 | N[C@H](C(=O)N1[C@H](C(=O)O)C[C@@H]2C[C@@H]21)C1CC2CCC(C1)N2C(=O)c1ccc2c(c1)OCO2 (stereo partly drawn) (as salt: hydrochloride) [Compound 46, (1S,3S,5S)-2-{(2S)-2-Amino-2-[8-(benzo[1,3]-dioxole-5-carbonyl)-8-aza-bicyclo[3.2.1]-oct-3-yl]-exo-ethanoyl}-2-azabicyclo[3.1.0]hexane-3-carboxylic acid hydrochloride] | 280 °C (dec.) | – | –
3 | N[C@H](C(=O)N1CC(F)C1)C1CC2CCC(C1)N2C(=O)c1ccncc1F (stereo partly drawn) (as salt: trifluoroacetic acid salt) [Compound 62, {(2S)-2-Amino-2-[8-(3-fluoropyridine-4-carbonyl)-8-aza-bicyclo[3.2.1]-oct-3-yl]-exo-ethanoyl}-3-fluoroazetidine trifluoroacetic acid salt] | 90 to 93 °C | – | –
4 | N#C[C@@H]1CCCN1C(=O)[C@@H](N)C1CC2CCC(C1)N2C(=O)c1cc(F)c(F)cc1F (stereo partly drawn) [Compound 1, (2S)-1-{(2S)-2-Amino-2-[8-(2,4,5-trifluorobenzoyl)-8-aza-bicyclo[3.2.1]oct-3-yl]-exo-ethanoyl}-pyrrolidin-2-carbonitrile trifluoroacetic acid salt] | – | 2.2 nM | inhibition at 10 mg/kg (plasma DPP-IV; 4 h post-dose, read-out: Plasma DPP-IV Inhibition (%) 4 h): 85%; inhibition at 10 mg/kg (plasma DPP-IV; 6 h post-dose, read-out: Plasma DPP-IV Inhibition (%) 6 h): 56%; inhibition at 10 mg/kg (plasma DPP-IV; 8 h post-dose, read-out: Plasma DPP-IV Inhibition (%) 8 h): 44%
5 | N[C@H](C(=O)N1CCC[C@H]1C(=O)O)C1CC2CCC(C1)N2C(=O)c1ccc(C(F)(F)F)cc1 (stereo partly drawn) (as salt: trifluoroacetic acid salt) [Compound 11, (2S)-1-{(2S)-2-amino-2-[8-(4-trifluoromethyl-benzoyl)-8-aza-bicyclo[3.2.1]-oct-3-yl]-exo-ethanoyl}-pyrrolidin-2-carboxylic acid trifluoroacetic acid salt] | 161 to 163 °C | – | –
6 | N#C[C@@H]1C[C@@H]2C[C@@H]2N1C(=O)[C@@H](N)[C@@H]1C[C@H]2CC[C@@H](C1)N2C(=O)c1ccncc1.O=C(O)C(F)(F)F [Compound 25, (1S,3S,5S)-2-{(2S)-2-Amino-2-[8-(pyridine-4-carbonyl)-8-aza-bicyclo[3.2.1]oct-3-yl]-exo-ethanoyl}-2-azabicyclo[3.1.0]hexane-3-carbonitrile trifluoroacetic acid salt] | – | 3.61 nM | Plasma DPP-IV Inhibition (%) 4 h (plasma DPP-IV; 4 h post-dose): 68%; Plasma DPP-IV Inhibition (%) 6 h (plasma DPP-IV; 6 h post-dose): 49%; Plasma DPP-IV Inhibition (%) 8 h (plasma DPP-IV; 8 h post-dose): 51%
7 | N#C[C@H]1CSCN1C(=O)[C@@H](N)C1CC2CCC(C1)N2C(=O)c1ccc(C(F)(F)F)cc1 (stereo partly drawn) (as salt: salt) [Compound 20, (4S)-3-{(2S)-2-Amino-2-[8-(4-trifluoromethyl-benzoyl)-8-aza-bicyclo[3.2.1]oct-3-yl]-exo-ethanoyl}-thiazolidin-4-carbonitrile trifluoroacetetic acid salt] | 159 to 161 °C | – | –
8 | C#C[C@H]1CC[C@@H](C#N)N1C(=O)[C@@H](N)C1CC2CCC(C1)N2C(=O)c1ccnc(F)c1 (stereo partly drawn) (as salt: salt) [Compound 66, (2S,5R)-1-{(2S)-2-Amino-2-[8-(2-fluoropyridin-4-carbonyl)-8-aza-bicyclo[3.2.1]-oct-3-yl]-exo-ethanoyl}-5-ethynyl-pyrrolidin-2-carbonitrile trifluoro acetic acid salt] | 199 to 200 °C | – | –
9 | N[C@H](C(=O)N1CCSC1)C1CC2CCC(C1)N2C(=O)c1ccc(C(F)(F)F)cc1 (stereo partly drawn) (as salt: trifluoroacetic acid salt) [Compound 21, 3-{(2S)-2-Amino-2-[8-(4-trifluoromethyl-benzoyl)-8-aza-bicyclo[3.2.1]-oct-3-yl]-exo-ethanoyl}-1,3-thiazolidin trifluoroacetic acid salt] | 123 to 125 °C | – | –
10 | N#C[C@@H]1CCCN1C(=O)[C@@H](N)C1CC2CCC(C1)N2C(=O)c1ccc(C(F)(F)F)cc1.O=C(O)C(F)(F)F (stereo partly drawn) [Compound 2, (2S)-1-{(2S)-2-Amino-2-[8-(4-trifluoromethylbenzoyl)-8-aza-bicyclo[3.2.1]oct-3-yl]-exo-ethanoyl}-pyrrolidin-2-carbonitrile trifluoroacetic acid salt] | – | 1.3 nM | Plasma DPP-IV Inhibition (%) 4 h (plasma DPP-IV; 4 h post-dose): 82%; Plasma DPP-IV Inhibition (%) 6 h (plasma DPP-IV; 6 h post-dose): 52%; Plasma DPP-IV Inhibition (%) 8 h (plasma DPP-IV; 8 h post-dose): 45%
11 | N#C[C@@H]1CCCN1C(=O)[C@@H](N)C1CC2CCC(C1)N2 (stereo partly drawn) (as salt: salt) [Compound 8, (2S)-1-{(2S)-2-Amino-2-[8-aza-bicyclo[3.2.1]oct-3-yl]-exo-ethanoyl}-pyrrolidin-2-carbonitrile trifluoro acetic acid salt] | 143 to 145 °C | – | –
12 | N#Cc1ccc(N2C3CCC2CC([C@H](N)C(=O)N2[C@H](C#N)C[C@@H]4C[C@@H]42)C3)cc1.O=C(O)C(F)(F)F (stereo partly drawn) [Compound 52, (1S,3S,5S)-2-{(2S)-2-Amino-2-[8-(4-cyano-phenyl)-8-aza-bicyclo[3.2.1]oct-3-yl]-exo-ethanoyl}-2-azabicyclo[3.1.0]hexane-3-carbonitrile trifluoro acetic acid salt] | – | – | % inhibition at 10 nM (human recombinant DPP-IV): 25% inhibition at 10 nM
13 | N#C[C@@H]1C[C@@H]2C[C@@H]2N1C(=O)[C@@H](N)C1CC2CCC(C1)N2C1CCCCC1.O=C(O)C(F)(F)F (stereo partly drawn) [Compound 60, (1S,3S,5S)-2-{(2S)-2-Amino-2-(8-cyclohexyl-8-aza-bicyclo[3.2.1]oct-3-yl)-exo-ethanoyl}-2-azabicyclo[3.1.0]hexane-3-carbonitrile trifluoroacetic acid salt] | – | – | % inhibition at 10 nM (human recombinant DPP-IV): 10% inhibition at 10 nM
14 | N#Cc1ccc(C(=O)N2C3CCC2CC([C@H](N)C(=O)N2[C@H](C#N)C[C@@H]4C[C@@H]42)C3)cc1 (stereo partly drawn) [Compound 24, (1S,3S,5S)-2-{(2S)-2-Amino-2-[8-(4-cyanobenzoyl)-8-aza-bicyclo[3.2.1]oct-3-yl]-exo-ethanoyl}-2-azabicyclo[3.1.0]hexane-3-carbonitrile trifluoroacetic acid salt] | – | 3.52 nM | –
15 | N#C[C@@H]1C[C@@H]2C[C@@H]2N1C(=O)[C@@H](N)C1CC2CCC(C1)N2Cc1ccncc1.O=C(O)C(F)(F)F (stereo partly drawn) [Compound 55, (1S,3S,5S)-2-{(2S)-2-Amino-2-[8-(pyridin-4-yl-methyl)-8-aza-bicyclo[3.2.1]oct-3-yl]-exo-ethanoyl}-2-azabicyclo[3.1.0]hexane-3-carbonitrile trifluoroacetic acid salt] | – | – | % inhibition at 10 nM (human recombinant DPP-IV): 45% inhibition at 10 nM
16 | N#C[C@H]1C[C@H]2C[C@H]2N1C(=O)[C@@H](N)C1CC2CCC(C1)N2C(=O)c1ccnc(F)c1.O=C(O)C(F)(F)F (stereo partly drawn) [Compound 29, (1R,3R,5R)-2-{(2S)-2-Amino-2-[8-(2-fluoropyridine-4-carbonyl)-8-aza-bicyclo[3.2.1]oct-3-yl]-exo-ethanoyl}-2-azabicyclo[3.1.0]hexane-3-carbonitrile trifluoroacetic acid salt] | – | – | % inhibition at 10 nM (human recombinant DPP-IV): 0% inhibition at 10 nM
17 | N#C[C@H]1CSCN1C(=O)[C@@H](N)C1CC2CCC(C1)N2C(=O)c1ccc(C(F)(F)F)cc1 (stereo partly drawn) [Compound 20, (4S)-3-{(2S)-2-Amino-2-[8-(4-trifluoromethyl-benzoyl)-8-aza-bicyclo[3.2.1]oct-3-yl]-exo-ethanoyl}-thiazolidin-4-carbonitrile trifluoroacetetic acid salt] | – | 2.8 nM | –
18 | N#C[C@@H]1C[C@@H]2C[C@@H]2N1C(=O)[C@@H](N)C1CC2CCC(C1)N2S(=O)(=O)c1cccs1 (stereo partly drawn) [Compound 57, (1S,3S,5S)-2-{(2S)-2-Amino-2-[8-(thiophene-2-sulfonyl)-8-aza-bicyclo[3.2.1]oct-3-yl]-exo-ethanoyl}-2-azabicyclo[3.1.0]hexane-3-carbonitrile trifluoroacetic acid salt] | – | 8 nM | –
19 | CCC(CC)N1C2CCC1CC([C@H](N)C(=O)N1[C@H](C#N)C[C@@H]3C[C@@H]31)C2.O=C(O)C(F)(F)F (stereo partly drawn) [Compound 59, (1S,3S,5S)-2-{(2S)-2-Amino-2-[8-(1-ethyl-propyl)-8-aza-bicyclo[3.2.1]oct-3-yl]-exo-ethanoyl}-2-azabicyclo[3.1.0]hexane-3-carbonitrile trifluoroacetic acid salt] | – | – | % inhibition at 10 nM (human recombinant DPP-IV): 34% inhibition at 10 nM
20 | N#C[C@@H]1C[C@H](F)CN1C(=O)[C@@H](N)C1CC2CCC(C1)N2C(=O)c1cc(F)ccc1F (stereo partly drawn) [Compound 17, (2S,4S)-1-{(2S)-2-Amino-2-[8-(2,5-difluorobenzoyl)-8-aza-bicyclo[3.2.1]oct-3-yl]-exo-ethanoyl}-4-fluoro-pyrrolidin-2-carbonitrile trifluoroacetic acid salt] | – | 2.4 nM | –
